Test results from US10308682B2, “Inhibition of tumor growth with aggregates of small molecules” (BRANDEIS UNIVERSITY, priority 2013, dated 2019).

How the values were obtained:
HeLa tumors = assay: Xenograft mouse model, HeLa tumors, peritumoral injection; format: in vivo, Nu/nu mice
Experimental: FIG. 2 depicts the cytotoxicity of 1. Cell viability assay (MTT) of HeLa cells after 24 and 48 h of treatment with (a) as prepared or (b) filtered medium containing different concentrations of 1. Also shown are MTT assays of 1 towards (c) MCF 7, (d) HepG2, (e) T98G and (f) PC12 cell lines. Data are presented as mean±SD of three independent experiments. (g) Tumor progression curves of mice bearing HeLa tumors. 0.1 mL of 1 at 5 mM or 0.5 mM in PBS buffers or just PBS buffer as control (six doses, starting day 1) was subcutaneous peritumorally injected every three days. Data are presented as mean±SD of relative tumor volume (n=4 for treatment groups and n=3 for control group). *p<0.05, by Student's t test. (at day 19, 5 mM=bottom data point; 0.5 mM=middle data point; control=top data point). (h) A representative image to show the mice, started with similar initial tumor volume (V0), from each group on 19th day of treatment. White arrows point at tumor. See also FIG. 9, FIG. 10, and FIG. 11.
Nu/nu mice were injected with HeLa cells (5×10^6) subcutaneously for tumor development. Treatment was started when average tumor size reached 30 mm^3. Mice were divided into three groups. One group (n=3) received 0.1 mL PBS buffer as control, the other two groups (n=4) received 0.1 mL of 1 at 5 mM or 0.5 mM. Six doses were given every three days starting day 1. Progression of tumor was monitored until 19th day of the treatment.
To further assess the inhibitory effect of molecular aggregates of 1 to cancer cells, we inoculated HeLa cells on nude mice and treated the xenograft tumors with molecular aggregates of 1 by peritumoral injection.

tau = assay: Hydrogel based protein pull-down assay, tau; format: binding; details: protein mass-spectrometry
Experimental: One reason is that PC12 cells have slower metabolism and growth (e.g., doubling every 72 h) than that of cancer cells. […] Another reason is that, PC12 cells, as a neuronal cell, have abundant amount of microtubule-stabilizing proteins (e.g., tau and MAP2) to promote tubulin polymerization and stabilize microtubules. […] Therefore, the existence of microtubule-stabilizing proteins in neurons can counter the effect of the molecular aggregates of 1, which is consistent with that PC12 cells, incubated with 1 at 400 μM (FIG. 5p), still display intact microtubule network. These two effects together, protect the PC12 cells from cytotoxicity induced by molecular aggregates of 1 (FIG. 7).
4×10^7 of HeLa cells were scrapped from petri dish and washed with PBS buffer for 3 times then centrifuged at 300 g for 5 minutes. The collected cell pellet was mixed with phosphate buffer (100 mM) then snap freeze and thaw for 3 cycles to lyse the cells. The cell lysate was clarified by centrifugation at 12,000 g for 20 min at 4° C. to remove the whole cells, nuclei and large mitochondria. 50 μL of the supernatant lysate was gently mixed with 30 μL hydrogel of 1 (10 mM in PBS buffer, pH 7.6) on rotator at RT for 30 min. The hydrogel was collected by centrifugation (12,000 g, 5 min, 4° C.) and the supernatant was collected and placed on ice before analysis. […]

HeLa cells [1] = assay: Cell viability assay (MTT), HeLa cells; format: cell-based
Experimental: (§1) Cells in exponential growth phase were seeded in a 96 well plate at a concentration of 50,000 cell/well. The cells were allowed to attach to the wells for 24 h at 37° C., 5% CO2, then the culture medium was removed and 100 μL new culture medium containing 1 at gradient concentrations was placed into each well. After culturing at 37° C., 5% CO2 for desired time, each well was added by 10 μL of 5 mg/mL MTT 43-(4,5-Dimethylthiazol-2-yl)-2,5-diphenyltetrazolium bromide), and the plated cells were incubate at dark for 4 h. 100 μL 10% SDS with 0.01 M HCl was added to each well to stop the reduction reaction and to dissolve the purple. After incubation of the cells at 37° C. for overnight, the viability is measured. Data represent the mean±standard deviation of three independent experiments.
(§2) The estimation of the threshold concentration of aggregation (320-340 μM) for 1 allows us to examine the cytotoxicity of 1 in monomer and molecular aggregate forms. We first tested the cytotoxicity of 1 towards HeLa cells, the most widely studied cancer cell line, below and above the threshold concentration.

HepG2 = assay: Cell viability assay (MTT), HepG2; format: cell-based
Experimental: as §1, §2

HeLa cells [2] = assay: Cell migration assay of HeLa cells; format: cell-based; details: 18 h
Experimental: FIG. 3 depicts the response of cancer cells toward molecular aggregates of 1. (a) Intracellular concentration of 1 in HeLa cells treated with 1 for 12 h at different temperatures measure by LC-MS (left bar=37° C.; right bar=4° C.). (b) Confocal images of FITC annexin V and PI stained HeLa cells without incubation with 1 (live cells), HeLa cells treated with 400 μM of 1 for 36 h, and necrotic HeLa cells (induced by DMSO). Scale bar=20 μm. (c) Fluorescence emission of 7-AAD and 1 in cell lysate (15,000 cell/mL) at λex=488 nm. (d) Cell cycle analysis, by flow cytometry, of HeLa cells treated with 0, 300 or 400 μM of 1 for 24 h. Depletion of G2/M phase occurs in cells treated with 400 μM of 1. (e) Cell migration assay of HeLa cells treated with 0, 300, 400 or 500 μM of 1. The gaps were created on the HeLa cells of 100% confluence in 24 well plates, and measured after incubation for 18 h.
Because apoptosis associates with cell cycle, we examined the effect of the aggregates of 1 on the cell cycle. […] The cell-cycle distribution of the HeLa cells incubated with 400 μM of 1 indicates significant decrease of the peaks of S phase and G2/M phase. […] The slight right shift of the whole spectra results from the overlapping of emission of 7-AAD and 1 (FIG. 3c). But such shift barely hampers the distribution of cell-cycle of the spectra. The aggregates of 1 also delay the migration of the HeLa cells.

O=C(Cc1ccc2ccccc2c1)N[C@@H](Cc1ccccc1)C(=O)N[C@@H](Cc1ccccc1)C(=O)O [Compound 1]
effect on tumor growth (HeLa tumors; 0.5 mM (~1 mg/kg), 0.1 mL peritumoral, every three days): little effect on tumor growth
surface of the skin covering and around the tumor (HeLa tumors; 5 mM): intact (with no ulceration or sclerosis)
effect on tumor progression (HeLa tumors; 5 mM (~10 mg/kg), 0.1 mL peritumoral, every three days): starts to inhibit tumor progression after 10th day of treatment
tumor size versus 0.5 mM group and control group (HeLa tumors; 5 mM, 19th day of treatment): significantly smaller
body weight change (HeLa tumors; 0.1 mL of 5 mM or 0.5 mM): no significant weight loss or weight gain
interaction of aggregates of 1 with tau (tau): little or no interaction
concentration at which molecular aggregates exhibit cytotoxicity (HeLa cells [1]): 400 µM
concentration at which molecular aggregates exhibit cytotoxicity, weight/volume (HeLa cells [1]; 400 μM converted): about 0.19 mg/mL
cytotoxicity towards HeLa cells (HeLa cells [1]; 200 and 300 μM, below threshold concentration): little cytotoxicity
cell death of HeLa cells, extended assay (HeLa cells [1]; 200 or 300 μM, 72 h): hardly results in significant cell death
time dependent viability of HeLa cells (HeLa cells [1]; 400 and 500 μM): little loss of cell viability until after 38 h
cytotoxicity towards HeLa cells after removal of aggregates (HeLa cells [1]; 400 and 500 μM, medium passed through 0.22 μm PVDF filter): largely alleviates the cytotoxicity
viability of the HeLa cells (HeLa cells [1]; 400 and 500 μM, within 48 h, as prepared medium): less than 20%
cytotoxicity towards HepG2 (HepG2): decreases of cell viabilities only observed at 400 and 500 μM
gap coverage by migrating cells (HeLa cells [2]; 300 μM): 47 % of the gaps
gap coverage by migrating cells (HeLa cells [2]; 400 or 500 μM): 27 % of the gaps
